The conditions of series [1]: Case XXVIII: carcinoma of the ovary, 40 kg; 120-200 mg LASIX intravenously.
For series [2] the following is noted: following intravenous administration; cited from earlier work.
Series [3] can be described thus: topical application to scalp, hair growth. In kind it is in vivo, human. Conditions: Case XXX: balding patient; topically to scalp. On the procedure: This patient was diagnosed in January, 1990. A gastric resection and colonic replacement of oesophagus (for swallowing) was performed. They had also developed an intraperitoneal tumor. They were given chemotherapy and lost their hair. […] Dr. Falk saw this patient on Jun.
This balding patient applied the product "minoxidil" sold under the trademark "ROGAINE" topically to their scalp.

Series [4] concerns tumor. Conditions: injected directly into a tumor.
The test system of series [5] is Grafts from ACI strain rats (black) to Lewis Strain rats (white). The experiment in a line: standard rat skin graft rejection model. Type of series: in vivo. Conditions: hyaluronic acid added to cyclosporin.
Series [6] in a line: side effects / toxicity in human patients. Type of series: in vivo. Conditions: 10 to 1000 mg/70 kg person.

In the case of `NS(=O)(=O)c1cc(C(=O)O)c(NCc2ccco2)cc1Cl` [LASIX, furosemide], the “total volume of urine over 48 hours” value in series [1] is 2,450 ml. In addition, in series [2], the duration of action result was “about 2 hours” and the onset of diuresis was no more than 30 min.
Regarding `Nc1cc(N2CCCCC2)nc(N)[n+]1[O-]` [ROGAINE, minoxidil], in series [3], the hair growth result was “minimal or little hair growth”.
Turning to `CCO` [ethyl alcohol], in series [4], the “dispersion in tumor, sonographic (ultrasound) assessment” value is listed as “not dispersed throughout the tumor”.
On to hyaluronic acid, for which the “cyclosporin induced graft survival” value in series [5] is listed as “significantly increased cyclosporin induced graft survival”. For the same compound, the toxicity result in series [6] is “no toxicity”.

The values are drawn from patent publication US5914314A (priority 1989, dated 1999).
